Columns and labels:
[1] = Stability of compounds in human hepatocytes; type: in vitro ADME; details: cryopreserved human hepatocytes in suspension, 37° C., 0-240 min
Experimental: (§1) Stability in hepatocytes for select compounds disclosed in the application was evaluated in two species (mouse and human) according to the following procedure. Compounds and positive control samples were dissolved in 100% DMSO at 5 mM. Cryopreserved hepatocytes were thawed and resuspended in Hepatocyte Basal Medium (HBM-Lonza CC-3199) supplemented with CC-4182 (complete hepatocyte culture medium). Test compounds were diluted into cell suspension (1 million cells/ml) from the stock solutions to have a test compound concentration of 5 μM (0.1% DMSO). Incubation was performed in 24-well plates, at 37° C. in a DUBNOFF water bath, under low shaking. Each compound was tested at 6 time points, in duplicates (0, 15, 30, 60, 120, and 240 min). At each time point, an aliquot of 120 μl was taken and transferred to a 96-well deep plate. The reaction was stopped with the addition of one volume of 100% acetonitrile plus 0.1% formic acid and the appropriate internal standard. Samples then were centrifuged at 1100×g for 30 min at +4° C. and supernatants were transferred to a new 96-deepwell plate. Samples were evaporated under N2 and reconstituted in H2O/ACN 0.1% formic Acid (98:2). Analysis was performed without a calibration curve (Acquity UPLC-Waters; Sciex API4000). Time 0 was obtained adding acetonitrile before addition of the test compound. Stability was determined based on analysis of disappearance of the compounds as a function of incubation time. Quantification of test compounds was measured as a peak area relative to an internal standard. The elimination constant, k, is calculated by plotting mean disappearance values on a semi-logarithmic scale and fitting with a best fit linear regression. The half-life (t1/2) expressed in hours was derived using Equation 1:
(§2) t1/2=ln 2/(−k). Equation 1: […]

[2] = Stability in human whole blood; type: in vitro ADME; details: 37° C., up to 60 min
Experimental: The stability of selected compounds in human whole blood was evaluated according to the following protocol. Compounds and positive control samples were dissolved in 100% DMSO at 3 mM (stock solution). To investigate the stability of the test compounds in whole blood, a 200 μM working solution (WS) in water has been prepared by adding 66.66 μl of each 3 mM stock solution to 933.34 μl of water (6.66% DMSO content). After pre-incubation of the whole blood at 37° C. for 5 min in an eppendorf, 10.5 μl of each working solution were spiked into 689.5 μl of heated blood. The obtained 3 μM solution in blood (0.1% DMSO content) was quickly stirred and 100 μl for each time point were transferred to an eppendorf. Each compound was tested in duplicate at five time points (10, 20, 30, 40 and 60 min). At each time point, the reaction was stopped by quenching the spiked blood (100 μl) with 400 μl of 100% acetonitrile containing 0.1% formic acid. Then samples were centrifuged at 15600 rpm for 15 min at +4° C. and 200 μl of supernatant were transferred to a 96-deepwell plate. Samples were evaporated under N2 and reconstituted in H2O/ACN 0.1% formic Acid (98/2 v/v) containing the appropriate internal standard. Analysis was performed without a calibration curve by using an Acquity-UPLC (Waters) coupled to a triple quadrupole mass spectrometer (SciexAPI4000). Time point 0 was obtained by adding 3 μL of each 200 μM working solution to 997 μL of the supernatant obtaining after centrifugation (15600 rpm for 15 min at +4° C.) of the blank matrix quenched with acetonitrile containing 0.1% formic acid.
(§3) Stability was determined based on analysis of disappearance of the compounds as a function of incubation time. Quantification of test compounds was measured as a peak area relative to an internal standard. The elimination constant k and half-life (t1/2) were determined as described above in Example 7.

[3] = Stability of compounds in mouse hepatocytes; type: in vitro ADME; details: cryopreserved mouse hepatocytes in suspension, 37° C., 0-240 min
Experimental: as §1, §2

PANK2−/− IMR32 cells = test: Coenzyme A assay in PANK2 silenced cells (LC-MS quantification of free CoA); type: cell-based, human; details: Homo sapiens, IMR-32; compound concentration 50 uM; fold increase in CoA levels relative to controls; treated twice, 24 h + 24 h
Experimental: A human neuroblastoma IMR32 cell line (ATCC) with stably PANK2 silencing was obtained by lentiviral-delivered small hairpin RNA and cultured in MEM (Invitrogen) supplemented with 10% fetal bovine serum, 2 mM glutamine, 1% penicillin-streptomycin, 1 mM sodium pyruvate, 1 mM non-essential amino acids, and 1.5 g/l sodium bicarbonate.
A non-silencing shRNA construct (scrambled shRNA) and an empty vector expressing GFP alone were used as negative controls. The GFP tag subcloned into the lentiviral vectors was used to monitor the transfection efficiency.
Three days after transduction medium was removed and replaced with fresh medium containing […] puromycin. […] The level of PANK2 expression in selected clones was assessed by Western Blot analysis.
To quantify CoA, PANK2−/− IMR32 cells were plated on 12-well culture plates (Corning) at a density of 0.2×10^6 cells per well. […] Controls with medium containing 0.1% DMSO without test compounds were also included in each plate. […] Before LC-MS analysis of CoA levels, cells were harvested, counted, and collected in a 15 ml falcon tube and centrifuged at 200×g for 5 min at 4° C. Supernatant was removed and cell pellet was washed in 10 ml of ice-cold PBS. To further confirm that the numbers of cells in each sample were equivalent, an equal fraction of pellet was collected from each sample and subjected to protein determination analysis. After centrifugation and supernatant removal, the cell pellet was rapidly frozen in Liquid Nitrogen and stored at −80° C. until analysis.
Intracellular CoA levels were calculated considering an intracellular volume of 1 million cells=2 μl.
The 1*10^6 cellular pellet was extracted with 120 μl of aqueous 20% TFA.
100 μL samples of supernatant were dried under N2 at 20° C. in the dark.
Samples were re-dissolved in 100 μl of 10 mM NH4^+ AcO^− buffer pH 5.1+IS (Dextrorphan 50 ng/ml), stirred for 2 min, sonicated in ultrasonic bath for 1 min, then stirred again for 1 min, and injected into LC-MS.
LC-MS/MS was performed using an Agilent HPLC (1100 Series, USA). The LC system was interfaced with an API-4000 Q-Trap triple quadrupole mass spectrometer (AB Sciex, Toronto, Canada) equipped with a TurboIonSpray ionization source operating in positive ion mode. Analyst™ software version 1.6 (AB Sciex, Toronto, Canada) was used for data acquisition and processing. CoA was separated using a Luna C18 column (2.0×50 mm; 5 μm particle size), column at 25° C. and flow rate of 0.2 ml/min. Injection volume was 15 μl. The mobile phases consisted of water containing 10 mM ammonium acetate pH 7 (mobile phase A) and MeCN-2-propanol 9:1 (mobile phase B).
Results are expressed as fold increase in CoA levels relative to controls (using LC-MS quantification of free CoA).

[4] = Stability in human plasma; type: in vitro ADME; details: 37° C., up to 60 min
Experimental: The stability of selected compounds in human plasma was evaluated according to the following protocol. Compounds and positive control samples were dissolved in 100% DMSO at 3 mM. To investigate the stability of the test compounds in plasma, samples were made by diluting test compounds into plasma from the stock solutions to obtain a test compound concentration of 3 μM (0.1% DMSO). Before addition of a test compound, 990 μl of plasma were preincubated at 37° C. for 5 min in eppendorf. After addition of a test compound, 70 μl for each time point were transferred to a 96-deepwell plate, previously warmed at 37° C. in a DUBNOFF water bath. Each compound was tested at five time points, in duplicate (10, 20, 30, 40 and 60 min). At each time point, an aliquot of 50 μl was taken and transferred to a new 96-deepwell plate, and the reaction was stopped with 200 μl of 100% acetonitrile containing 0.1% formic acid and the appropriate internal standard. Then samples were centrifuged at 1100×g for 30 min at +4° C. and supernatants were transferred to a new 96-deepwell plate. Samples were evaporated under N2 and reconstituted in H2O/ACN 0.1% formic Acid (98:2). Analysis was performed without a calibration curve (Acquity UPLC-Waters; SciexAPI4000). Time 0 was obtained by adding acetonitrile before addition of the test compound.
as §3

[5] = Diastereoisomer A (upfield shift in 31P NMR), read-out: t1/2 (h) Human Hepatocytes Diastereoisomer A (converted)
[6] = Diastereoisomer A (upfield shift in 31P NMR), read-out: t1/2 (h) Mouse Hepatocytes Diastereoisomer A (converted)
[7] = Diastereoisomer A (upfield shift in 31P NMR), read-out: t1/2 (h) Human Plasma Diastereoisomer A (converted)

half-life at 5 μM [1, 5]	half-life at 5 μM ([1]; Diastereoisomer B, read-out: t1/2 (h) Human Hepatocytes Diastereoisomer B (converted))	half-life at 3 μM ([2]; Diastereoisomer A (upfield shift in 31P NMR), read-out: t1/2 (h) Human Whole Blood Diastereoisomer A (converted))	half-life at 3 μM ([2]; Diastereoisomer B, read-out: t1/2 (h) Human Whole Blood Diastereoisomer B (converted))	half-life at 5 μM [3, 6]	half-life at 5 μM ([3]; Diastereoisomer B, read-out: t1/2 (h) Mouse Hepatocytes Diastereoisomer B)	half-life at 3 μM [4, 7]	half-life at 3 μM ([4]; Diastereoisomer B, read-out: t1/2 (h) Human Plasma Diastereoisomer B (converted))	Compound	fold induction at 50 µM (PANK2−/− IMR32 cells)
0.29 h	< 0.25 h	0.5 h	0.23 h	< 0.25 h	< 0.25 h			CC(=O)SCCNC(=O)CCNC(=O)[C@@H]1OP(=O)(OCOC(=O)NCCOC(=O)C(C)(C)C)OCC1(C)C (stereo partly drawn) [R1008, 2-((((((4R)-4-((3-((2-(acetylthio)ethyl)amino)-3-oxopropyl)carbamoyl)-5,5-dimethyl-2-oxido-1,3,2-dioxaphosphinan-2-yl)oxy)methoxy)carbonyl)amino)ethyl pivalate]	41.2
						> 1 h	0.36 h	CC(=O)SCCNC(=O)CCNC(=O)[C@@H]1OP(=O)(N[C@@H](C)C(=O)OCCc2ccccc2)OCC1(C)C (stereo partly drawn) [R1001, phenethyl ((4R)-4-((3-((2-(acetylthio)ethyl)amino)-3-oxopropyl)carbamoyl)-5,5-dimethyl-2-oxido-1,3,2-dioxaphosphinan-2-yl)-L-alaninate]	3.5
< 0.25 h				< 0.25 h		0.72 h		CC(=O)SCCNC(=O)CCNC(=O)[C@@H]1O[P@@](=O)(OCOC(=O)C(C)(C)C)OCC1(C)C [R1002, (((2S,4R)-4-((3-((2-(acetylthio)ethyl)amino)-3-oxopropyl)carbamoyl)-5,5-dimethyl-2-oxido-1,3,2-dioxaphosphinan-2-yl)oxy)methyl pivalate]	

Source: patent publication US20190337971A1, “PANTETHEINE DERIVATIVES FOR THE TREATMENT OF NEUROLOGIC DISORDERS” (Retrophin, Inc., priority 2016, published 2019)
